Measurements reported in PMC8546689, “High-Throughput Screen for Inhibitors of the Type IV Pilus Assembly ATPase PilB” (mSphere, 2021).
Values belong to the compound of their own block, whether it stands above or below them.

What was measured:
Assay type in all cases: binding
[1] = molecular target: T1, PilB (CtPilB), type IV pilus assembly ATPase (Chloracidobacterium thermophilum, UniProt G2LDI3); assay: competitive displacement of fluorescent MANT-ATP
T1 construct: gene Cabther_A1696

[2] = molecular target: T1, PilB (CtPilB), type IV pilus assembly ATPase; assay: competitive displacement of fluorescent MANT-ATP (IC50 […])
[3] = molecular target: T1, PilB (CtPilB), type IV pilus assembly ATPase; assay: fluorescence enhancement titration of MANT-ATP with CtPilB

T1 sequence (G2LDI3 entry or part of it): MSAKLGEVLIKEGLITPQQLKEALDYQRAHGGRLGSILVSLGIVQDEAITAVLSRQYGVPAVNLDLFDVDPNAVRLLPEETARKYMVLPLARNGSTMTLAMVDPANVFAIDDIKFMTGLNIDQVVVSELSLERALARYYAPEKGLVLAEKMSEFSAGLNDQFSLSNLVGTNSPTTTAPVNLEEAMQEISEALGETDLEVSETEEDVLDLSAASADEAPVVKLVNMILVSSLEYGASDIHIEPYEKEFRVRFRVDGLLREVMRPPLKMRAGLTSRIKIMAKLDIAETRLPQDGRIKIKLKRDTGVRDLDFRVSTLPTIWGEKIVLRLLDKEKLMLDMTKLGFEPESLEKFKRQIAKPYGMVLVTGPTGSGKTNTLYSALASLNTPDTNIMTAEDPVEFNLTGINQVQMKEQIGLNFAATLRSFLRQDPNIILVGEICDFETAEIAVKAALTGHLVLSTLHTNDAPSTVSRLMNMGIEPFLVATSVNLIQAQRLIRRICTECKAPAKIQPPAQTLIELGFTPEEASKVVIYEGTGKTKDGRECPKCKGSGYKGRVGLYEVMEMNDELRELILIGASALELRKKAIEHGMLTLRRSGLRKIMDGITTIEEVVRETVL

IC50 [1]: 3.07 µM
SMILES: Nc1ncnc2c1ncn2[C@@H]1O[C@H](COP(=O)(O)OP(=O)(O)O)[C@@H](O)[C@H]1O [ADP]

SMILES: Nc1ncnc2c1ncn2[C@@H]1O[C@H](COP(=O)(O)OP(=O)(O)OP(=O)(O)O)[C@@H](O)[C@H]1O [ATP]
Ki [2]: 2.2 µM

Kd [3]: 0.29 ± 0.01 µM
SMILES: CNc1ccccc1C(=O)O[C@H]1[C@@H](O)[C@H](n2cnc3c(N)ncnc32)O[C@@H]1CO[P@@](=O)(O)O[P@](=O)(O)OP(=O)(O)O [MANT-ATP]
